These results are taken from ChEMBL document CHEMBL1201862, “PubChem BioAssay data set” (2004).

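These data come from cells grown in 96-well plates and exposed to compound for 48 hours at five concentrations. GI50 is the concentration that inhibits growth by half.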 Calls of active or inactive are those of the source. Cut-off read from the data, not from the text of the source: active = GI50 up to about 1.1 µM and inactive = higher. Bounds are passed on as bounds.

Among the test systems are TK-10; DU-145; EKVX; HOP-62; OVCAR-8; OVCAR-5; SW-620; A549; MOLT-4; SNB-19; SK-MEL-28; MCF7; T47D; UACC-257; MDA-N; KM12; MDA-MB-231; SK-MEL-2; SK-OV-3; OVCAR-4.
Holding throughout (assay): NCI tumour cell line growth inhibition, 48 h

For `Cc1ccc([S+]([O-])c2cccs2)cc1` (configuration not stated), the GI50 in the test with TK-10, in the test with DU-145, with EKVX, with HOP-62, in the test on OVCAR-8 and in the test on OVCAR-5 was > 100 µM (inactive) in each case. Also, the GI50 with SW-620, in the test with A549, with MOLT-4, in the test with SNB-19, with SK-MEL-28 and in the test with MCF7 was > 100 µM (inactive) in each case. The GI50 in the test on T47D, in the test with UACC-257, in the test with MDA-N and in the test with KM12 was > 100 µM (inactive) in each case.
Turning to `CCC(/C=C/c1ccccc1)=N\Nc1ccc(Cl)c(Cl)c1`, the GI50 with TK-10 is 56.6 µM (inactive); with DU-145, 89.1 µM (inactive); in the test with EKVX it was 30.3 µM (inactive); with HOP-62 it was 41.9 µM (inactive); with OVCAR-8 it was 16 µM (inactive); in the test on OVCAR-5, 66.1 µM (inactive). For the same compound, the GI50 in the test with SW-620 was 33 µM (inactive); with A549 it was 39.7 µM (inactive); in the test on MOLT-4, 31 µM (inactive); with SNB-19, 52.1 µM (inactive); in the test with SK-MEL-28 it was 48.1 µM (inactive); in the test with MCF7, 28.7 µM (inactive). Besides, the GI50 in the test with MDA-MB-231 was 17.8 µM (inactive); in the test on T47D it was 49.9 µM (inactive); with UACC-257, 31.6 µM (inactive); in the test on MDA-N, 34.3 µM (inactive); in the test with SK-MEL-2, 17.7 µM (inactive); with KM12, 29.3 µM (inactive). Further, the GI50 in the test with SK-OV-3 is 27.4 µM (inactive).
Regarding `O=C1CN(c2cccc(C(F)(F)F)c2)C(=O)CN1CCN1CC(=O)N(c2cccc(C(F)(F)F)c2)CC1=O`, the GI50 in the test on TK-10, in the test with EKVX, in the test on HOP-62, in the test on OVCAR-8, in the test on OVCAR-5 and with SW-620 was > 100 µM (inactive) each time. Also, the GI50 in the test on A549, with MOLT-4, in the test on SNB-19, in the test on SK-MEL-28, with MCF7 and with MDA-MB-231 was > 100 µM (inactive) throughout. For the same compound, the GI50 with T47D, in the test with UACC-257, with MDA-N, with OVCAR-4, in the test on KM12 and in the test with SK-OV-3 was > 100 µM (inactive) throughout.
`O=c1[nH]ncc2[nH]c3c4ccccc4ccc3c12`: the GI50 in the test with TK-10 was 28.6 µM (inactive); with DU-145, > 100 µM (inactive); in the test on EKVX, 10.8 µM (inactive); with HOP-62 it was 40.6 µM (inactive); with OVCAR-8, 51.3 µM (inactive); with OVCAR-5, 39.9 µM (inactive). The GI50 was 41.3 µM (inactive) in the test on SW-620; 22.2 µM (inactive) with A549; 35.6 µM (inactive) with MOLT-4; 18.4 µM (inactive) with MCF7; 52.8 µM (inactive) in the test on T47D; 26.4 µM (inactive) in the test on MDA-N. The GI50 with OVCAR-4 was 44.5 µM (inactive); with KM12 it was 37.4 µM (inactive); in the test with SK-OV-3, 31.1 µM (inactive).
Regarding `CC1(C)C2CCC1(C)C(NC(=O)COCCOCC(N)=O)C2` (configuration not stated), the GI50 in the test on TK-10, with DU-145, in the test with EKVX, in the test on HOP-62, in the test on OVCAR-8 and in the test with OVCAR-5 was > 100 µM (inactive) each time. Moreover, the GI50 in the test on SW-620, with A549, with MOLT-4, in the test on SNB-19, with SK-MEL-28 and in the test with MCF7 was > 100 µM (inactive) in each case. Further, the GI50 in the test with MDA-MB-231, with T47D, with UACC-257, in the test on MDA-N, in the test with OVCAR-4 and with KM12 was > 100 µM (inactive) in each case. Further, the GI50 in the test with SK-OV-3 is > 100 µM (inactive).
As to `COC(=O)c1nc(Cl)nc(Cl)c1Cl`, the GI50 in the test on TK-10 is 21.2 µM (inactive); with DU-145, 70.3 µM (inactive); in the test on HOP-62, 30.2 µM (inactive); in the test with OVCAR-8, 21 µM (inactive); with OVCAR-5 it was 23.5 µM (inactive); in the test on SW-620, 16.2 µM (inactive). In addition, the GI50 with A549 is 44.1 µM (inactive); with MOLT-4, 10.5 µM (inactive); with SNB-19, 83.8 µM (inactive); in the test with SK-MEL-28, 21.1 µM (inactive); in the test on MCF7 it was 28.2 µM (inactive); in the test on MDA-MB-231 it was 17.6 µM (inactive). Besides, the GI50 in the test on T47D was 24.3 µM (inactive); in the test on MDA-N it was 29.5 µM (inactive); in the test with OVCAR-4 it was 19.5 µM (inactive); in the test with KM12 it was 22.2 µM (inactive); with SK-OV-3 it was 41.9 µM (inactive).
For `C=C(Cl)C(Cl)(CBr)CCC(Br)C(C)(C)Br` (configuration not stated), the GI50 in the test on TK-10 was 1.49 µM (inactive); in the test on DU-145, 3.97 µM (inactive); in the test with EKVX, 8.45 µM (inactive); with HOP-62, 1.06 µM (active); in the test with OVCAR-8, 4.3 µM (inactive); with OVCAR-5 it was 12.7 µM (inactive). Further, the GI50 with SW-620 is 3 µM (inactive); in the test with A549 it was 4.9 µM (inactive); in the test on MOLT-4, 6.9 µM (inactive); with SNB-19, 8.75 µM (inactive); in the test on SK-MEL-28 it was 2.95 µM (inactive); with MCF7, 1.5 µM (inactive). Moreover, the GI50 is 11.9 µM (inactive) in the test with MDA-MB-231; 2.25 µM (inactive) in the test on T47D; 1.8 µM (inactive) in the test with UACC-257; 8.93 µM (inactive) with MDA-N; 16.3 µM (inactive) in the test with OVCAR-4; 1.38 µM (inactive) with KM12. The GI50 in the test with SK-OV-3 was 17.2 µM (inactive).
Consider `O=C(c1ccccc1)N1C(=S)NC(=N/c2ccccc2)/C1=N\c1ccccc1`, for which the GI50 in the test with TK-10, in the test with DU-145, in the test with EKVX, in the test on HOP-62, with OVCAR-8 and with OVCAR-5 was > 100 µM (inactive) each time. Also, the GI50 in the test with SW-620, in the test with A549, in the test on MOLT-4, in the test with SNB-19, with SK-MEL-28 and in the test with MDA-MB-231 was > 100 µM (inactive) throughout. Moreover, the GI50 with T47D, in the test on UACC-257, with MDA-N, with OVCAR-4, in the test on SK-MEL-2 and in the test on KM12 was > 100 µM (inactive) throughout. Moreover, the GI50 with SK-OV-3 is > 100 µM (inactive).
As for `O=C1N=C(SC2OC(CO)C(O)C(O)C2O)S/C1=C\c1ccccc1` (configuration not stated), the GI50 with TK-10, in the test on DU-145, in the test with HOP-62, in the test on OVCAR-8, with OVCAR-5 and in the test on SW-620 was > 100 µM (inactive) each time. The GI50 with A549, in the test on MOLT-4, in the test on SNB-19, in the test with SK-MEL-28, in the test on MCF7 and in the test on MDA-MB-231 was > 100 µM (inactive) in each case. The GI50 with T47D, in the test with UACC-257, in the test with MDA-N, in the test with SK-MEL-2, in the test with KM12 and in the test with SK-OV-3 was > 100 µM (inactive) each time.
Turning to `O=S(=O)(O)c1ccc(/N=N\c2c(O)ccc3cc(Br)ccc23)cc1`, the GI50 with TK-10, in the test with DU-145, in the test with EKVX, in the test on HOP-62, with OVCAR-8 and with OVCAR-5 was > 100 µM (inactive) throughout. For the same compound, the GI50 in the test on SW-620, in the test with A549, in the test on MOLT-4, with SNB-19, in the test with SK-MEL-28 and in the test on MDA-MB-231 was > 100 µM (inactive) in each case. In addition, the GI50 with T47D, with UACC-257, in the test on MDA-N, in the test with OVCAR-4, in the test with SK-MEL-2 and with KM12 was > 100 µM (inactive) throughout. Besides, in the test on SK-OV-3, the GI50 was > 100 µM (inactive).
For `CNc1nc(OC)c2c(n1)n(C)c[n+]2C` [HETEROMINE B], the GI50 in the test on TK-10, with DU-145, in the test on EKVX, with HOP-62, with OVCAR-8 and in the test with OVCAR-5 was > 100 µM (inactive) throughout. Also, the GI50 in the test with SW-620 is > 100 µM (inactive); in the test on A549 it was 73.8 µM (inactive); with MOLT-4, > 100 µM (inactive); in the test on SNB-19, > 100 µM (inactive); in the test on SK-MEL-28 it was > 100 µM (inactive); with MDA-MB-231 it was > 100 µM (inactive). Further, the GI50 in the test on T47D is > 100 µM (inactive); in the test on UACC-257, > 100 µM (inactive); in the test with MDA-N it was > 100 µM (inactive); with SK-MEL-2 it was 53.3 µM (inactive); in the test with KM12 it was > 100 µM (inactive); with SK-OV-3 it was > 100 µM (inactive).
